The record followed here is PMC5676038, “MCR-1 Inhibition with Peptide-Conjugated Phosphorodiamidate Morpholino Oligomers Restores Sensitivity to Polymyxin in Escherichia coli” (mBio, 2017).

Experiment [1] relates to E. coli MRSN 388634. As to the kind of experiment: Mouse septicemia model, acute. The class given is in vivo, BALB/c mice. The protocol:
FIG 3 PPMOs rescue colistin activity in a mouse model of acute septicemia. Female BALB/c mice (7 to 8 weeks old) were infected via intraperitoneal injection with 8e4 CFU of MRSN 388634. At 2 and 6 h postinfection, 0.25 mg/kg colistin sulfate, 100 μg PPMO (~5 mg/kg), or the combination was administered via the i.p. route. Mice were euthanized at 24 h, and organ burden was determined. Numbers of CFU per gram of tissue of the liver (A) and spleen (B) are shown. (C) Morbidity was assessed immediately prior to euthanasia and scored as a maxima of 6 (moribund) and a nadir of 0. Mice that succumbed prior to euthanasia are depicted with the maxima score of 6. The data represent the means and standard errors of the means (SEM) of results from two replicate experiments (n = 4) (n = 8 per group total). n.s., not significant; *, P < 0.05; **, P < 0.01; ***, P < 0.001; ****, P < 0.0001 by Student’s t test, with the Mann-Whitney test used for morbidity.
Animal experiments were approved by the […] at UT Southwestern Medical Center (protocol number 2016-101626). The mouse model of septicemia with PPMO rescue of antibiotic activity was described previously ([10]).
(§1) Briefly, 7- to 8-week-old female BALB/c mice (Jackson Laboratory, Sacramento, CA, USA) were infected intraperitoneally (i.p.) with 8 × 10^4 CFU of E. coli (MRSN 388634) in DPBS with 5% mucin (M1778; Sigma-Aldrich). At 2 and 6 h postinfection, 0.25 mg/kg colistin sulfate, 100 µg PPMO, or the combination was administered i.p. in 100 µl DPBS. Morbidity was assessed at 24 h, immediately prior to euthanasia. Mice were scored from 0 to 6 as follows: 0 for the absence or 1 for the presence of a ruffled coat; 0 for a normal posture, 1 for a hunched posture, and 2 for a prostrate posture; and 0 for nondisturbed movement, 1 for slow movement, 2 for movement after prodding, and 3 for no movement. Mice that succumbed to infection prior to euthanasia were scored as the maxima, 6 (moribund). Spleen and liver were harvested and homogenized in 1 ml DPBS (Omni TH; Omni International, Kennesaw, GA), serially diluted, and plated on blood agar.

Experiment [2] deals with E. coli MRSN 388634. As to the kind of experiment: Mouse septicemia model, survival. Format: in vivo, BALB/c mice. The protocol: FIG 4 PPMOs combined with colistin protect mice from a lethal dose of mcr-1-positive E. coli. Female BALB/c mice (7 to 8 weeks old) were infected via intraperitoneal injection with 1e6 CFU of MRSN 388634. At 2 and 6 h postinfection 0.5 mg/kg colistin sulfate, 100 μg PPMO (~5 mg/kg), or the combination was administered via the i.p. route. Mice were monitored for morbidity, with an assessment scored at a maxima of 6 (moribund; dotted line [b]) and a nadir of 0. The data represent the means and SEM from two replicate experiments (n = 4) (n = 8 per group total). (A to C) Survival curve (A), morbidity scoring (B), and weight loss measurement (C) over the course of 5 days. ****, P < 0.0001 by the Mantel-Cox log-rank test.
as §1
Mice were infected and treated as described above except that the inoculum was increased to 1 × 10^6 CFU and the colistin dose was increased to 0.5 mg/kg. Mice were weighed, and morbidity was assessed every 6 h for the first 36 h and then every 12 h out to 120 h (5 days). Mice that reached the moribund state were euthanized.

Positions of bridges follow the written chain, without caps; N, C: chain ends. Non-standard residues stand in square brackets, D forms with d. Residues, ends and D or L forms follow the SMILES beside them. *: point of attachment. X1 = CC[C@H](C)CCCCC(=O)*; Dab = NCC[C@H](N)C(=O)O

On to `CC[C@H](C)CCCCC(=O)N[C@@H](CCN)C(=O)N[C@H](C(=O)N[C@@H](CCN)C(=O)N[C@H]1CCNC(=O)[C@H]([C@@H](C)O)NC(=O)[C@H](CCN)NC(=O)[C@H](CCN)NC(=O)[C@H](CC(C)C)NC(=O)[C@@H](CC(C)C)NC(=O)[C@H](CCN)NC1=O)[C@@H](C)O` [Colistin, colistin, reference compound] (X1-[Dab]T[Dab][Dab][Dab][dL]L[Dab][Dab]T; lactam 4-C (inferred); N-terminus assumed), for which the “burden in the liver and morbidity at 24 h, colistin alone” value with E. coli MRSN 388634 [1] (BALB/c, 8 × 10^4 CFU i.p., colistin sulfate 0.25 mg/kg i.p. at 2 and 6 h, n = 8) was “significant reduction”.
For the molecule “TCAAAGAGTAC [Mcr1-0545, (RXR)4XB 3′-end-conjugated PPMO targeted to mcr-1 mRNA, positions −8 to +3; theone tested in mice]”, the “effect on burden or morbidity at 24 h, PPMO alone” value in the experiment with E. coli MRSN 388634 [1] (BALB/c, 8 × 10^4 CFU i.p., PPMO 100 μg (~5 mg/kg) i.p. at 2 and 6 h postinfection, n = 8) is reported as “Neither the MCR-1 nor the Ctrl PPMO alone had an effect”. In addition, the “decrease in the number of CFU, combination with colistin” value in the experiment on E. coli MRSN 388634 [1] (PPMO ~5 mg/kg + colistin sulfate 0.25 mg/kg i.p. at 2 and 6 h, 24 h) is given as ~ 1 log. In addition, the “liver burden and morbidity, combination with colistin, compared to Ctrl PPMO and colistin” value with E. coli MRSN 388634 [1] (PPMO ~5 mg/kg + colistin sulfate 0.25 mg/kg i.p. at 2 and 6 h, 24 h, n = 8) is recorded as “significantly less”. Further, the “numbers of CFU in liver and spleen at 24 h, combination with colistin, compared to DPBS control” value in the experiment with E. coli MRSN 388634 [1] (PPMO ~5 mg/kg + colistin sulfate 0.25 mg/kg i.p. at 2 and 6 h, n = 8) is “significant reduction”. Further, the “survival to the 5-day endpoint, combination with colistin” value in the experiment with E. coli MRSN 388634 [2] (BALB/c, 1 × 10^6 CFU i.p., PPMO 100 μg (~5 mg/kg) + colistin sulfate 0.5 mg/kg i.p. at 2 and 6 h, n = 6/8) is listed as 75%. The “body weight course, combination with colistin” value in the experiment on E. coli MRSN 388634 [2] (PPMO ~5 mg/kg + colistin sulfate 0.5 mg/kg, over 5 days) was “continued to lose weight over the course of the experiment”. In addition, in the experiment on E. coli MRSN 388634 [2] (PPMO ~5 mg/kg + colistin sulfate 0.5 mg/kg, score 0 to 6), the “morbidity course, combination with colistin” value is “increased initially, but the mice began to recover by 24 h”.
